Results on 21 compounds are retold here after patent publication US9062071B2, “Substituted piperidines as HDM2 inhibitors” (Merck Sharp & Dohme Corp, priority 2011, dated 2015).

The term IC50 denotes the concentration that inhibits the measured activity by half.

The assay concerns the target HDM2 protein (Homo sapiens, UniProt Q00987). Briefly: fluorescence polarization screening assay (FP IC50). In kind it is binding. The settings on record: class symbols. How it is done: The compounds were evaluated to determine activity at the HDM2 protein by known methods such as the fluorescence polarization screening assay that measures the inhibitory concentration that achieves 50% of maximal activity (FP IC50) and the dissociation constant for inhibitor binding (FP Ki). [Zhang et al., J. Analytical Biochemistry 331: 138-146 (2004)].
(Polarisation of emitted light reports the rotation of a fluorescent probe.)

Chain of HDM2 protein (Q00987 whole entry): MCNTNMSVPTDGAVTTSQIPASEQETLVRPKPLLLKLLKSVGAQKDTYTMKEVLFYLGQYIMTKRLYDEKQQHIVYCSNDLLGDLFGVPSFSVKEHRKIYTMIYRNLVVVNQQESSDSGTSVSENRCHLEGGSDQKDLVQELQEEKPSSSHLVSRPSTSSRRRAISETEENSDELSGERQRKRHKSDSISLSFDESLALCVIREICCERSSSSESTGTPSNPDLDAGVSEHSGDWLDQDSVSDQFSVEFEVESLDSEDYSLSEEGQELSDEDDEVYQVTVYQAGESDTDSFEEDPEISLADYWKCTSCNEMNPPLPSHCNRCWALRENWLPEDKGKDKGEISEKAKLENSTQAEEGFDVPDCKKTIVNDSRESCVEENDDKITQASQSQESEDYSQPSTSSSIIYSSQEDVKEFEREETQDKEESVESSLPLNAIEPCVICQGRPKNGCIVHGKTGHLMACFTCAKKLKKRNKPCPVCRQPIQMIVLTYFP

The compound `CCC[C@H]1N(C(=O)c2ncccc2C(F)(F)F)CCC[C@@]1(Oc1csc(C(F)(F)F)c1)C(=O)N1Cc2ccc(Cl)cc2C[C@@H]1COCC(=O)O` [Compound A38, {[(3R)-6-chloro-2-{[(2R,3S)-2-propyl-1-{[3-(trifluoromethyl)pyridin-2-yl]carbonyl}-3-{[5-(trifluoromethyl)thiophen-3-yl]oxy}piperidin-3-yl]carbonyl}-1,2,3,4-tetrahydroisoquinolin-3-yl]methoxy}acetic acid] showed a 50% inhibitory concentration (IC50) of 1 to 100 nM.
As for `CCC[C@H]1N(C(=O)c2ncccc2C(F)(F)F)CCC[C@@]1(Oc1csc(C(F)(F)F)c1)C(=O)N1CCc2cc(F)ccc2C1CCC(=O)O` (stereo partly drawn) [Compound A39, 3-(6-fluoro-2-{[(2R,3S)-2-propyl-1-{[3-(trifluoromethyl)pyridin-2-yl]carbonyl}-3-{[5-(trifluoromethyl)thiophen-3-yl]oxy}piperidin-3-yl]carbonyl}-1,2,3,4-tetrahydroisoquinolin-1-yl)propanoic acid], the figure is 1 to 100 nM; as for `CCC[C@H]1N(C(=O)c2ncccc2C(F)(F)F)CCC[C@@]1(Oc1csc(C(F)(F)F)c1)C(=O)N1CCc2cc(F)ccc2C1CCCCC(=O)O` (stereo partly drawn) [Compound A40, 5-(6-fluoro-2-{[(2R,3S)-2-propyl-1-{[3-(trifluoromethyl)pyridin-2-yl]carbonyl}-3-{[5-(trifluoromethyl)thiophen-3-yl]oxy}piperidin-3-yl]carbonyl}-1,2,3,4-tetrahydroisoquinolin-1-yl)pentanoic acid], 1 to 100 nM; as for `CCC[C@H]1N(C(=O)c2ncccc2C(F)(F)F)CCC[C@@]1(Oc1csc(C(F)(F)F)c1)C(=O)N1CCc2cc(F)ccc2C1CCCCC(=O)O` (stereo partly drawn) [Compound A41, 5-(6-fluoro-2-{[(2R,3S)-2-propyl-1-{[3-(trifluoromethyl)pyridin-2-yl]carbonyl}-3-{[5-(trifluoromethyl)thiophen-3-yl]oxy}piperidin-3-yl]carbonyl}-1,2,3,4-tetrahydroisoquinolin-1-yl)pentanoic acid], 1 to 100 nM.
Under `CCC[C@H]1N(C(=O)c2ncccc2C(F)(F)F)CCC[C@@]1(Oc1csc(C(F)(F)F)c1)C(=O)N1CCc2cc(F)ccc2C1CCC(=O)O` (stereo partly drawn) [Compound A42, 3-(6-fluoro-2-{[(2R,3S)-2-propyl-1-{[3-(trifluoromethyl)pyridin-2-yl]carbonyl}-3-{[5-(trifluoromethyl)thiophen-3-yl]oxy}piperidin-3-yl]carbonyl}-1,2,3,4-tetrahydroisoquinolin-1-yl)propanoic acid] stands 1 to 100 nM; under `CCC[C@H]1N(C(=O)c2ncccc2C(F)(F)F)CCC[C@@]1(Oc1csc(C(F)(F)F)c1)C(=O)N1CCc2cc(F)ccc2C1CCCCC(=O)O` (stereo partly drawn) [Compound A43, 5-(6-fluoro-2-{[(2R,3S)-2-propyl-1-{[3-(trifluoromethyl)pyridin-2-yl]carbonyl}-3-{[5-(trifluoromethyl)thiophen-3-yl]oxy}piperidin-3-yl]carbonyl}-1,2,3,4-tetrahydroisoquinolin-1-yl)pentanoic acid], 1 to 100 nM.
As for `CCC[C@H]1N(C(=O)c2ncccc2C(F)(F)F)CCC[C@@]1(Oc1csc(C(F)(F)F)c1)C(=O)N1CCc2cc(F)ccc2C1CCC(=O)O` (stereo partly drawn) [Compound A44, 3-(6-fluoro-2-{[(2R,3S)-2-propyl-1-{[3-(trifluoromethyl)pyridin-2-yl]carbonyl}-3-{[5-(trifluoromethyl)thiophen-3-yl]oxy}piperidin-3-yl]carbonyl}-1,2,3,4-tetrahydroisoquinolin-1-yl)propanoic acid], the figure is 1 to 100 nM.
In the case of `CCC[C@H]1N(C(=O)c2ncccc2C(F)(F)F)CCC[C@@]1(Oc1csc(C(F)(F)F)c1)C(=O)N1CCc2cc(Cl)ccc2[C@H]1CCC(=O)O` [Compound A45, 3-[(1R)-6-chloro-2-{[(2R,3S)-2-propyl-1-{[3-(trifluoromethyl)pyridin-2-yl]carbonyl}-3-{[5-(trifluoromethyl)thiophen-3-yl]oxy}piperidin-3-yl]carbonyl}-1,2,3,4-tetrahydroisoquinolin-1-yl]propanoic acid], the IC50 was in the range of 1 to 100 nM.
As for `CCC[C@H]1N(C(=O)c2ncccc2C(F)(F)F)CCC[C@@]1(Oc1csc(C(F)(F)F)c1)C(=O)N1CCc2cc(C#N)ccc2C1` [Compound A46], the figure is 101 to 20000 nM; as for `CCC[C@H]1N(C(=O)c2ncccc2C(F)(F)F)CCC[C@@]1(Oc1csc(C(F)(F)F)c1)C(=O)N1CCc2cc(OC)ccc2C1` [Compound A47, 6-methoxy-2-{[(2R,3S)-2-propyl-1-{[3-(trifluoromethyl)pyridin-2-yl]carbonyl}-3-{[5-(trifluoromethyl)thiophen-3-yl]oxy}piperidin-3-yl]carbonyl}-1,2,3,4-tetrahydroisoquinoline], 101 to 20000 nM.
As for `CCC[C@H]1N(C(=O)c2ncccc2C(F)(F)F)CCC[C@@]1(Oc1csc(C(F)(F)F)c1)C(=O)N1CCc2cc(F)ccc2C1` [Compound A48, 6-fluoro-2-{[(2R,3S)-2-propyl-1-{[3-(trifluoromethyl)pyridin-2-yl]carbonyl}-3-{[5-(trifluoromethyl)thiophen-3-yl]oxy}piperidin-3-yl]carbonyl}-1,2,3,4-tetrahydroisoquinoline], the figure is 101 to 20000 nM.
The compound `CCC[C@H]1N(C(=O)c2ncccc2C(F)(F)F)CCC[C@@]1(Oc1csc(C(F)(F)F)c1)C(=O)N1CCc2cc(Cl)ccc2C1` [Compound A49, 6-chloro-2-{[(2R,3S)-2-propyl-1-{[3-(trifluoromethyl)pyridin-2-yl]carbonyl}-3-{[5-(trifluoromethyl)thiophen-3-yl]oxy}piperidin-3-yl]carbonyl}-1,2,3,4-tetrahydroisoquinoline] returned a concentration for half-maximal inhibition (IC50) of 1 to 100 nM.
Under `CCC[C@H]1N(C(=O)c2ncccc2C(F)(F)F)CCC[C@@]1(Oc1csc(C(F)(F)F)c1)C(=O)N1CCc2cc(Br)ccc2C1` [Compound A50, 6-bromo-2-{[(2R,3S)-2-propyl-1-{[3-(trifluoromethyl)pyridin-2-yl]carbonyl}-3-{[5-(trifluoromethyl)thiophen-3-yl]oxy}piperidin-3-yl]carbonyl}-1,2,3,4-tetrahydroisoquinoline] stands 1 to 100 nM.
Under `CCC[C@H]1N(C(=O)c2ncccc2C(F)(F)F)CCC[C@@]1(Oc1csc(C(F)(F)F)c1)C(=O)N1CCc2cc(F)ccc2C1CCCO` (stereo partly drawn) [Compound A51, 3-(6-fluoro-2-{[(2R,3S)-2-propyl-1-{[3-(trifluoromethyl)pyridin-2-yl]carbonyl}-3-{[5-(trifluoromethyl)thiophen-3-yl]oxy}piperidin-3-yl]carbonyl}-1,2,3,4-tetrahydroisoquinolin-1-yl)propan-1-ol] stands 1 to 100 nM; under `CCC[C@H]1N(C(=O)c2ncccc2C(F)(F)F)CCC[C@@]1(Oc1csc(C(F)(F)F)c1)C(=O)N1CCc2cc(F)ccc2C1CC(=O)O` (stereo partly drawn) [Compound A52, (6-fluoro-2-{[(2R,3S)-2-propyl-1-{[3-(trifluoromethyl)pyridin-2-yl]carbonyl}-3-{[5-(trifluoromethyl)thiophen-3-yl]oxy}piperidin-3-yl]carbonyl}-1,2,3,4-. tetrahydroisoquinolin-1-yl)acetic acid], 1 to 100 nM; under `CCC[C@H]1N(C(=O)c2ncccc2C(F)(F)F)CCC[C@@]1(Oc1csc(C(F)(F)F)c1)C(=O)N1CCc2cc(Cl)ccc2C1CC(=O)O` (stereo partly drawn) [Compound A53, (6-chloro-2-{[(2R,3S)-2-propyl-1-{[3-(trifluoromethyl)pyridin-2-yl]carbonyl}-3-{[5-(trifluoromethyl)thiophen-3-yl]oxy}piperidin-3-yl]carbonyl}-1,2,3,4-. tetrahydroisoquinolin-1-yl)acetic acid], 1 to 100 nM.
As for `CCC[C@H]1N(C(=O)c2ncccc2C(F)(F)F)CCC[C@@]1(Oc1csc(C(F)(F)F)c1)C(=O)N1CCc2cc(F)ccc2C1CCCO` (stereo partly drawn) [Compound A54, 3-(6-fludro-2-{[(2R,3S)-2-propyl-1-{[3-(trifluoromethyl)pyridin-2-yl]carbonyl}-3-{[5-(trifluoromethyl)thiophen-3-yl]oxy}piperidin-3-yl]carbonyl}-1,2,3,4-tetrahydroisoquinolin-1-yl)propan-1-ol], the figure is 101 to 20000 nM; as for `CCC[C@H]1N(C(=O)c2ncccc2C(F)(F)F)CCC[C@@]1(Oc1csc(C(F)(F)F)c1)C(=O)N1CCc2cc(Cl)ccc2C1CC(=O)O` (stereo partly drawn) [Compound A55, (6-chloro-2-{[(2R,3S)-2-propyl-1-{[3-(trifluoromethyl)pyridin-2-yl]carbonyl}-3-{[5-(trifluoromethyl)thiophen-3-yl]oxy}piperidin-3-yl]carbonyl}-1,2,3,4-. tetrahydroisoquinolin-1-yl)acetic acid], 1 to 100 nM; as for `CCC[C@H]1N(C(=O)c2ncccc2C(F)(F)F)CCC[C@@]1(Oc1csc(C(F)(F)F)c1)C(=O)N1CCc2cc(F)ccc2C1CC(=O)O` (stereo partly drawn) [Compound A56, (6-fluoro-2-{[(2R,3S)-2-propyl-1-{[3-(trifluoromethyl)pyridin-2-yl]carbonyl}-3-{[5-(trifluoromethyl)thiophen-3-yl]oxy}piperidin-3-yl]carbonyl}-1,2,3,4-. tetrahydroisoquinolin-1-yl)acetic acid], 1 to 100 nM.
`CCC[C@H]1N(C(=O)c2ncccc2C(F)(F)F)CCC[C@@]1(Oc1csc(C(F)(F)F)c1)C(=O)N1CCc2cc(Br)ccc2C1CCC(=O)O` (stereo partly drawn) [Compound A57, 3-(6-bromo-2-{[(2R,3S)-2-propyl-1-{[3-(trifluoromethyl)pyridin-2-yl]carbonyl}-3-{[5-(trifluoromethyl)thiophen-3-yl]oxy}piperidin-3-yl]carbonyl}-1,2,3,4-tetrahydroisoquinolin-1-yl)propanoic acid]: the IC50 is 1 to 100 nM.
The compound `CCC[C@H]1N(C(=O)c2ncccc2C(F)(F)F)CCC[C@@]1(Oc1csc(C(F)(F)F)c1)C(=O)N1CCc2cc(Br)ccc2C1CCC(=O)O` (stereo partly drawn) [Compound A58, 3-(6-bromo-2-{[(2R,3S)-2-propyl-1-{[3-(trifluoromethyl)pyridin-2-yl]carbonyl}-3-{[5-(trifluoromethyl)thiophen-3-yl]oxy}piperidin-3-yl]carbonyl}-1,2,3,4-tetrahydroisoquinolin-1-yl)propanoic acid] gave an IC50 of 1 to 100 nM.
